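1) Cells in 96-well plates. 2) Compound, 48 h, 5 concentrations. 3) Linear interpolation between surrounding doses. 4) Unreached endpoint = highest concentration. TGI: concentration producing complete growth inhibition.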 Some results are limits rather than exact numbers.

The text below walks through data of PubChem BioAssay (NCI).

The subject of the first experiment is SK-MEL-2 melanoma. Briefly: NCI anticancer screen, dose series, 48 h.
Take `CC1CNc2ccccc2N=C1NN` (stereo unspecified): the TGI was > 100 µM.

`COc1ccc(/C=C(/C#N)C(N)=O)cc1OC`: the TGI was > 100 µM.

Consider `CCOC(=O)C1(C(=O)OCC)Nc2cccnc2N(C)N1`, for which the TGI turned out to be 37 µM.

In the next experiment the test system is SK-MEL-28 melanoma. Briefly: NCI anticancer screen, dose series, 48 h.
The molecule `CCN(CC)CCC(=O)c1ccc(Oc2ccc(Cl)cc2)cc1` registered a TGI of 32.6 µM.

On to `CC1CNc2ccccc2N=C1NN` (stereo unspecified), for which the TGI is > 100 µM.

`COc1ccc(/C=C(/C#N)C(N)=O)cc1OC`: the TGI was > 100 µM.

With `CCOC(=O)C1(C(=O)OCC)Nc2cccnc2N(C)N1`, the TGI was 93.8 µM.

The test system of a further experiment is SK-MEL-5 melanoma. Briefly: NCI anticancer screen, dose series, 48 h.
Take `CCN(CC)CCC(=O)c1ccc(Oc2ccc(Cl)cc2)cc1`: the TGI was 31.2 µM.

As for `CC1CNc2ccccc2N=C1NN` (stereo unspecified), the TGI was > 100 µM.

For the molecule `COc1ccc(/C=C(/C#N)C(N)=O)cc1OC`, the TGI was > 100 µM.

In the case of `CCOC(=O)C1(C(=O)OCC)Nc2cccnc2N(C)N1`, the TGI was found to be 34.2 µM.

The next experiment relates to SK-OV-3 ovarian. Briefly: NCI anticancer screen, dose series, 48 h.
`CC1CNc2ccccc2N=C1NN` (stereo unspecified): the TGI was > 100 µM.

With `COc1ccc(/C=C(/C#N)C(N)=O)cc1OC`, the TGI was > 100 µM.

As to `CCOC(=O)C1(C(=O)OCC)Nc2cccnc2N(C)N1`, the TGI is > 100 µM.

The next experiment concerns SN12C renal. Briefly: NCI anticancer screen, dose series, 48 h.
In turn, `CCN(CC)CCC(=O)c1ccc(Oc2ccc(Cl)cc2)cc1` yielded a TGI of 31.2 µM.

With `CC1CNc2ccccc2N=C1NN` (stereo unspecified), the TGI was > 100 µM.

For the molecule `COc1ccc(/C=C(/C#N)C(N)=O)cc1OC`, the TGI is > 100 µM.

For `CCOC(=O)C1(C(=O)OCC)Nc2cccnc2N(C)N1`, the TGI is 36 µM.

The subject of another experiment is SNB-19 CNS. Description: NCI anticancer screen, dose series, 48 h.
As to `CCN(CC)CCC(=O)c1ccc(Oc2ccc(Cl)cc2)cc1`, the TGI is > 100 µM.

Consider `CC1CNc2ccccc2N=C1NN` (stereo unspecified), for which the TGI is > 100 µM.

As to `COc1ccc(/C=C(/C#N)C(N)=O)cc1OC`, the TGI was > 100 µM.

As to `CCOC(=O)C1(C(=O)OCC)Nc2cccnc2N(C)N1`, the TGI is > 100 µM.

A further experiment has as its system SNB-75 CNS. Description: NCI anticancer screen, dose series, 48 h.
The molecule `CCN(CC)CCC(=O)c1ccc(Oc2ccc(Cl)cc2)cc1` returned a TGI of 25.5 µM.

As to `COc1ccc(/C=C(/C#N)C(N)=O)cc1OC`, the TGI was > 100 µM.

For the molecule `CCOC(=O)C1(C(=O)OCC)Nc2cccnc2N(C)N1`, the TGI is > 100 µM.

The next experiment concerns SR leukemia. Briefly: NCI anticancer screen, dose series, 48 h.
Turning to `CCN(CC)CCC(=O)c1ccc(Oc2ccc(Cl)cc2)cc1`, the TGI was 48.7 µM.

With `CC1CNc2ccccc2N=C1NN` (stereo unspecified), the TGI was > 100 µM.

`COc1ccc(/C=C(/C#N)C(N)=O)cc1OC`: the TGI is > 100 µM.

For the molecule `CCOC(=O)C1(C(=O)OCC)Nc2cccnc2N(C)N1`, the TGI is > 100 µM.

The next experiment relates to SW-620 colon. Description: NCI anticancer screen, dose series, 48 h.
Turning to `CCN(CC)CCC(=O)c1ccc(Oc2ccc(Cl)cc2)cc1`, the TGI was 44.4 µM.

With `CC1CNc2ccccc2N=C1NN` (stereo unspecified), the TGI is > 100 µM.

For `COc1ccc(/C=C(/C#N)C(N)=O)cc1OC`, the TGI is > 100 µM.

Regarding `CCOC(=O)C1(C(=O)OCC)Nc2cccnc2N(C)N1`, the TGI stood at 69 µM.

The subject of the next experiment is T-47D breast. Description: NCI anticancer screen, dose series, 48 h.
`CCN(CC)CCC(=O)c1ccc(Oc2ccc(Cl)cc2)cc1` yielded a TGI of 44.3 µM.

As to `CC1CNc2ccccc2N=C1NN` (stereo unspecified), the TGI was > 100 µM.

For the molecule `COc1ccc(/C=C(/C#N)C(N)=O)cc1OC`, the TGI is > 100 µM.

`CCOC(=O)C1(C(=O)OCC)Nc2cccnc2N(C)N1`: the TGI was determined as 53.5 µM.

For a further experiment, the system named is TK-10 renal. Briefly: NCI anticancer screen, dose series, 48 h.
With `CCN(CC)CCC(=O)c1ccc(Oc2ccc(Cl)cc2)cc1`, the TGI came out at 33.1 µM.

Turning to `CC1CNc2ccccc2N=C1NN` (stereo unspecified), the TGI was > 100 µM.

For the molecule `COc1ccc(/C=C(/C#N)C(N)=O)cc1OC`, the TGI is > 100 µM.

Regarding `CCOC(=O)C1(C(=O)OCC)Nc2cccnc2N(C)N1`, the TGI came to 40.1 µM.

The test system of the next experiment is U251 CNS. Briefly: NCI anticancer screen, dose series, 48 h.
The molecule `CCN(CC)CCC(=O)c1ccc(Oc2ccc(Cl)cc2)cc1` came in with a TGI of 33.1 µM.

In the case of `CC1CNc2ccccc2N=C1NN` (stereo unspecified), the TGI was > 100 µM.

Regarding `COc1ccc(/C=C(/C#N)C(N)=O)cc1OC`, the TGI is > 100 µM.

With `CCOC(=O)C1(C(=O)OCC)Nc2cccnc2N(C)N1`, the TGI was determined as 41.4 µM.

The subject of the next experiment is UACC-257 melanoma. Description: NCI anticancer screen, dose series, 48 h.
The molecule `CCN(CC)CCC(=O)c1ccc(Oc2ccc(Cl)cc2)cc1` displayed a TGI of 28.6 µM.

Take `CC1CNc2ccccc2N=C1NN` (stereo unspecified): the TGI is > 100 µM.

Turning to `COc1ccc(/C=C(/C#N)C(N)=O)cc1OC`, the TGI was > 100 µM.

As for `CCOC(=O)C1(C(=O)OCC)Nc2cccnc2N(C)N1`, the TGI was determined as 32.3 µM.

The subject of another experiment is UACC-62 melanoma. Briefly: NCI anticancer screen, dose series, 48 h.
Molecule `CCN(CC)CCC(=O)c1ccc(Oc2ccc(Cl)cc2)cc1` registered a TGI of 35.2 µM.

For the molecule `CC1CNc2ccccc2N=C1NN` (stereo unspecified), the TGI was > 100 µM.

Consider `COc1ccc(/C=C(/C#N)C(N)=O)cc1OC`, for which the TGI is > 100 µM.

Molecule `CCOC(=O)C1(C(=O)OCC)Nc2cccnc2N(C)N1` came in with a TGI of 35.2 µM.

For the next experiment, the system named is UO-31 renal. Briefly: NCI anticancer screen, dose series, 48 h.
For `CCN(CC)CCC(=O)c1ccc(Oc2ccc(Cl)cc2)cc1`, the TGI came out at 32.4 µM.

As to `CC1CNc2ccccc2N=C1NN` (stereo unspecified), the TGI was > 100 µM.

Molecule `CCOC(=O)C1(C(=O)OCC)Nc2cccnc2N(C)N1` had a TGI of 31.8 µM.
